Test results taken from patent publication US7465718B2, “Ansamycins having improved pharmacological and biological properties” (Conforma Therapeutics Corporation, priority 2002, dated 2008).

How the values were obtained:
rHsp90 (low affinity) = assay: Biotin-geldanamycin competition binding, purified native HSP90 protein (rHsp90, low affinity); conditions: read-out: rHsp90 (low affinity) IC50 nM; inhibition of biotin-GM binding to purified HSP90, 4° C.
SKOV-3 ovarian xenograft = SKOV-3 ovarian xenograft model; type: in vivo; conditions: tumors 200 mm3 before commencement of treatment
Source text: Compounds have also been tested in HER-2 over-expressing tumor models such as BT474 breast and SKOV-3 ovarian carcinoma A therapy experiment with SKOV-3 is shown in FIG. 6. The treatment, doses, and schedule were the same as used in the A549 and MDA435 experiments. In this case, the tumors were allowed to become established and grow to a relatively large size (200 mm3) before commencement of treatment.

A549 xenografts = assay: A549 xenograft growth in vivo; conditions: IP injections, three consecutive days each week for four weeks
Source text: Similar efficacy has been seen with five second-generation ansamycins, some of which are being developed as back-ups to Compound#237.

[1] = Water solubility studies (salts dissolved in water at room temperature); type: physicochemical; conditions: thermodynamic from solid, HCl salt, read-out: Solubility of the HCl salt in H2O
Experimental: Various salts were prepared as described in the example section and dissolved in water at room temperature.

Her-2 = assay: HER2 inhibition assay (Her-2 degradation in MCF7 cells, flow cytometry); type: cell-based; conditions: read-out: HER-2 degradation (IC50 nM)
Experimental: MCF7 cells are seeded in 24 well plates at a density of approximately 30,000 cells/well and allowed to grow for 16 hours in DMEM supplemented with 10% FBS. Drug is then added at a concentration range of 100 uM to 0.01 uM. Cells are incubated for an additional 24. […] 10,000 events were collected per sample. A fluorescence histogram was generated and the mean fluorescence intensity (mfi) of each sample was determined using Cellquest software. The background was defined as the mfi generated from cells incubated with control IgG, and was subtracted from each sample stained with the HER-2/neu Ab. Percent degradation of Her-2 was calculated as follows: % Her-2 degradation=(mfi HER-2 sample)/(mfi HER-2 untreated cells)×100 Water Solubility Studies

[2] = tested on: HSP90 (cell lysate, high affinity); assay: Biotin-geldanamycin competition binding, HSP90 in cell lysate (high affinity)
MDA435 breast tumor = MDA435 breast tumor model; type: in vivo, nude mice; conditions: four courses of therapy; 25 or 30 mg/kg, 40 or 50 mg/kg
Experimental: When the tumors were ˜50 mm3 in size, the animals were randomized into groups of five (10 tumors/group). Therapy commenced under the schedule described for the A549 model. Animals were treated with vehicle (triangles) or one of two doses (25 or 30 mg/kg, squares; 40 or 50 mg/kg, circles) of drugs.

[3] = tested on: primary human breast tumor xenograft; assay: Transplantable primary human breast tumor xenograft model; type: in vivo; conditions: 30 mg/kg intraperitoneally
PBMC = assay: MTS assay to measure cytotoxicity of PBMC; type: cell-based, human; conditions: PBMCs without virus, read-out: TC50 (μM) (50% cytotoxicity)
Experimental: PBMC's in 96 well plates that were treated with compounds (without virus) were assayed for cell viability and compound toxicity using an MTS assay (CellTiter 96 Aqueous Non-Radioactivity Cell Proliferation Assay, Promega, Madison; Wis.).

HIV-1ROJO = assay: Anti-HIV PBMC assay (reverse transcriptase activity in supernatant)

| Structure (SMILES) | IC50 (rHsp90 (low affinity)) [nM] | tumor growth in SKOV-3 xenograft (SKOV-3 ovarian xenograft) | growth of A549 xenografts (A549 xenografts) | solubility [1] [mg/mL] | IC50 (Her-2) [nM] | melting point [°C] | ratio ([2]; rHsp90 (low affinity) IC50 over lysate (high affinity) IC50) | IC50 ([2]; read-out: Lysate (high affinity) IC50 nM, inhibition of biotin-GM binding to HSP90 in cell lysate, 4° C.) [nM] | inhibition of tumor growth in MDA435 (MDA435 breast tumor) [%] | tumor growth inhibition in primary human breast tumor xenograft [3] [%] | CC50 (PBMC) [µM] | TI (therapeutic index, TC50/IC50) (HIV-1ROJO; HIV-1ROJO in PBMCs) | IC50 (HIV-1ROJO; read-out: IC50 (μM) (50% inhibition of virus replication), HIV-1ROJO in fresh human PBMCs, 7 days) [µM] |
| --- | --- | --- | --- | --- | --- | --- | --- | --- | --- | --- | --- | --- | --- |
| COC1C=CC=C(C)C(=O)NC2=CC(=O)C(NCCCNCCCNC3=C4CC(C)CC(OC)C(O)C(C)C=C(C)C(OC(N)=O)C(OC)C=CC=C(C)C(=O)NC(=CC3=O)C4=O)=C(CC(C)CC(OC)C(O)C(C)C=C(C)C1OC(N)=O)C2=O (stereo not shown) [Compound #237] | 2000 | suppressed tumor growth almost completely | blocks the growth | ≥ 13 | 20 | 165 | 67 | 30 | 70 to 100 | 86 |  |  |  |
| Cc1cn([C@H]2C[C@H](N=[N+]=[N-])[C@@H](CO)O2)c(=O)[nH]c1=O [AZT Control, reference compound] |  |  |  |  |  |  |  |  |  |  | > 1 | >197.6 | 0.0051 |
